Earlier results in patent US9636407B2, “Caspofungin acetate formulations” (priority 2012, dated 2017).

Columns and labels:
[1] = CANCIDAS prescribing information
[2] = background statement

## 1-[(4R,5S)-5-[(2-aminoethyl)amino]-N^2-(10,12-dimethyl-1-oxotetradecyl)-4-hydroxy-L-ornithine]-5-[(3R)-3-hydroxy-L-ornithine]pneumocandin B0 diacetate (salt) [caspofungin acetate]
[1]
  pH of a saturated solution in water: about 6.6
[2]
  oral bioavailability: poor
